Test results: PMC10397204, “Revealing protonation states and tracking substrate in serine hydroxymethyltransferase with room-temperature X-ray and neutron crystallography” (Communications Chemistry, 2023)

How the values were obtained:
TthSHMT [1] = molecular target: T1, TthSHMT (Thermus thermophilus, UniProt Q5SI56); experiment: joint room-temperature X-ray/neutron crystallography, crystal soak; type: binding; details: pH 5.5, 500 mM; D2O H/D exchange; labelled compound; noncovalent pre-Michaelis complex in peripheral site, protomer A, sulfate in substrate site
T1 construct: gene glyA; recombinant in E. coli BL21(DE3), codon-optimized glyA, N-terminal His6-tag with linker removed by TEV, starts at Ser3; homodimer, active site formed by residues of both protomers
T1 sequence (Q5SI56 3-407): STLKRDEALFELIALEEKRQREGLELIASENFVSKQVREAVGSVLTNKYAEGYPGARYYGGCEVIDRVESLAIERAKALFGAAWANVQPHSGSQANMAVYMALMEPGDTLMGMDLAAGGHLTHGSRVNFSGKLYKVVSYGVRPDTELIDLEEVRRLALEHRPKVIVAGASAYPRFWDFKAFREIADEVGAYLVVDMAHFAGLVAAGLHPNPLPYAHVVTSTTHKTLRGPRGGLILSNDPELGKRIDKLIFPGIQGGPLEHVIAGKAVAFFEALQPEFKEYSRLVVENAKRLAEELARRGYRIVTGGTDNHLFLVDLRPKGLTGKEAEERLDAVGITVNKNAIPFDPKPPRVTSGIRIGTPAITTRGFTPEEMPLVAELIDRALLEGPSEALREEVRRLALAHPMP

TthSHMT [2] = molecular target: T1, TthSHMT; experiment: joint room-temperature X-ray/neutron crystallography; type: binding; details: pH 5.5; covalent; Schiff base with Lys226 (internal aldimine)

| Structure (SMILES) | joint room-temperature X-ray/neutron crystallography, crystal soak (TthSHMT [1]) | joint room-temperature X-ray/neutron crystallography (TthSHMT [2]) |
| --- | --- | --- |
| N[C@@H](CO)C(=O)O [L-Ser-d7] | we observed L-Ser-d7 bound in a pocket on the periphery of the active site |  |
| Cc1ncc(COP(=O)(O)O)c(C=O)c1O [PLP] |  | In TthSHMT, PLP is covalently bound to Lys226 (Lys280 in hSHMT2) through a Schiff base |
